Drawing on patent US5393774A, “Phenylethanolamines, pharmaceutical compositions containing these compounds and process for preparing them” (priority 1990, dated 1995), this text covers ED50 for 4 molecules.

This assay relates to bronchospasm triggered by intravenous administration of 20 μg/kg of acetyl-choline. The assay can be described thus: broncholytic effect, test arrangement according to KONZETT and ROSSLER on anesthetized guinea-pigs. The class given is in vivo. To be noted: Cavia porcellus, read-out: ED50 (broncholytic effect, reduction in acetyl-choline bronchospasm).
Setting [1] is: after i.v. administration, anesthetized guinea-pigs, 20 μg/kg acetyl-choline i.v., linear regression analysis.

Read-outs that look alike come from different tables or passages of the source.

Protocol: The broncholytic effect was investigated by the test arrangement according to KONZETT and ROSSLER (Arch. exp. Path. Pharmak. 195, 71 (1940)) on anesthetized guinea-pigs. An ED50 was calculated from the average percentage reduction, achieved with the various intravenous doses, in the bronchospasm triggered by intravenous administration of 20 μg/kg of acetyl-choline, by linear regression analysis according to LINDER (Statistische Methoden, 4th Edition, pp. 148-162, Birkhauser, Basel 1964):

As a reminder, the ED50 is the dose at which the effect has come halfway, by size or by number of responders. For the molecule `Nc1c(Cl)cc(C(O)CNCCCCCCOCCCCc2ccccc2)cc1Cl` (stereo not shown) [V], under setting [1], the ED50 was above 400 µg/kg.

Turning to `Cl.N#Cc1cc(C(O)CNCCCCCCOCCCCc2ccccc2)cc(F)c1N` (stereo not shown) [Substance B, 1-(4-amino-3-cyano-5-fluoro-phenyl)-2-[6-(4-phenylbutoxy)-hexyl-amino]ethanol-hydrochloride], the ED50 under setting [1] turned out to be 2.5 µg/kg.

As for `CCOC(=O)Nc1c(F)cc(C(O)CNCCCCCCOCCCCc2ccccc2)cc1C#N.Cl` (stereo not shown) [Substance A, 1-(4-ethoxycarbonylamino-3-cyano-5-fluoro-phenyl)-2-[6-(4-phenyl-butoxy)hexylamino]-ethanol-hydrochloride], the ED50 under setting [1] worked out at 10.2 µg/kg.

Consider `COc1ccc(CC(C)NCC(O)c2cc(F)c(N)c(C#N)c2)cc1.Cl` (stereo not shown) [Substance C, 1-(4-amino-3-cyano-5-fluoro-phenyl)-2-[2-(4-methoxyphenyl)-1-methyl-ethylamino]-ethanol-hydrochloride], for which the ED50 stood at 0.16 µg/kg.
